Source: a melting point compilation (Tetko et al.)

Row | SMILES | melting point
1 | Cc1nc(Cl)nc(Cl)c1[N+](=O)[O-] | 52 to 54 °C
2 | O=C(O)c1nn(-c2cccc(Br)c2)c2c1CCCC2 | 193 to 195 °C
3 | Cc1nc(Cl)cc(-c2ccccn2)n1 | 75 to 77 °C
4 | CNC1CC(=O)N(Cc2ccccc2)C1=O (stereo not drawn) | 72 to 74 °C
5 | CCOC(=O)c1c(C)oc2nc(CCl)[nH]c(=O)c12 | 197 to 199 °C
6 | CC(NC(=O)c1cccs1)C(=O)O (stereo not drawn) | 163 to 165 °C
7 | Cc1ccc(-c2ccc(=O)[nH]n2)s1 | 231 to 233 °C
8 | O=C(CCl)Nc1ccnn1Cc1ccccc1Cl | 119 to 121 °C
9 | Cc1cc(C=O)ccc1-n1cncn1 | 104 to 106 °C
10 | O=[N+]([O-])c1n[nH]cc1Br | 193 to 195 °C
11 | CC1(C)CCC(C#N)=C1N | 108 to 110 °C
12 | CCCCc1ccc(NC(=O)/C=N/O)cc1 | 120 to 122 °C
13 | CC(C)[C@H](NC(=O)c1c(F)cccc1F)C(=O)O | 172 to 174 °C
14 | CC(=O)CC(=O)NCCc1ccccc1 | 57 to 59 °C
15 | O=C(Nc1cccc(S(=O)(=O)C2CCCC2)c1)OCC(F)(F)F | 104 to 106 °C
16 | COc1cccc2cc(C=O)oc12 | 45 to 47 °C
17 | CC(C)CNS(=O)(=O)c1ccc(Br)c(C(=O)O)c1 | 174 to 176 °C
18 | Cn1cc(-c2ncc(C=O)s2)cn1 | 141 to 143 °C
19 | CN(CC(=O)O)C(=O)c1cccs1 | 101 to 103 °C
20 | Cc1cc(C(=O)CCl)c(C)n1Cc1ccc(F)cc1 | 94 to 96 °C
21 | Nc1cc(F)c(F)cc1Br | 47 to 49 °C
22 | COc1cc2c(cc1C=O)OC(C)C2 (stereo not drawn) | 78 to 80 °C
23 | COc1cc(F)c(F)cc1[N+](=O)[O-] | 54 to 56 °C
24 | CC(CO)NCc1ccccc1Cl (stereo not drawn) | 54 to 56 °C

Row | SMILES | melting point
25 | COc1ccc(C=O)c2cc(C(=O)O)oc12 | 264 to 266 °C
26 | CCc1nc(NC(=O)CCl)sc1C | 124 to 126 °C
27 | Cc1cc(Br)c(O)c(C(=O)O)c1 | 201 to 203 °C
28 | NS(=O)(=O)c1c(Cl)cccc1Cl | 176 to 178 °C
29 | O=C(O)c1ncoc1-c1ccccc1Cl | 194 to 196 °C
30 | N#Cc1ccc(S(=O)(=O)N2CCCC2)cc1 | 103 to 105 °C
31 | CCCCc1ccc(NS(=O)(=O)c2cccc(C(=O)O)c2)cc1 | 206 to 208 °C
32 | OC1CC2CCCC(C1)N2Cc1ccccc1 (stereo not drawn) | 57 to 59 °C
33 | CC1CCC(NC(=O)C(C)Cl)CC1 (stereo not drawn) | 135 to 137 °C
34 | COC(=O)c1sc(N)nc1C(C)(C)C | 158 to 160 °C
35 | Cc1c(N)cc(C(=O)NC(C)c2ccccc2)cc1F (stereo not drawn) | 96 to 98 °C
36 | O=C1CNCCN1Cc1ccc(Cl)cc1 | 83 to 85 °C
37 | CC(C)Oc1cc(C(=O)O)ccn1 | 145 to 147 °C
38 | CC(C)CCc1cc(N)on1 | 61 to 63 °C
39 | CNC(=S)NNC(=O)c1ccccc1 | 181 to 183 °C
40 | CC(COc1ccccc1)C(=O)O (stereo not drawn) | 84 to 86 °C
41 | Cc1ccc(S(N)(=O)=O)cc1N | 176 to 178 °C
42 | CCn1c(S)nnc1-c1ccccc1OC | 171 to 173 °C
43 | CCNC(=O)CN(CC)C(=O)CCl | 246 to 248 °C
44 | NCc1ccc(-c2ccn[nH]2)cc1 | 141 to 143 °C
45 | COc1ccc(C(=O)O)cc1S(=O)(=O)N1CCCc2ccccc21 | 211 to 213 °C
46 | Nc1nc(-c2ccccc2)cn1/N=C/c1ccccc1 | 202 to 204 °C
47 | c1ccc(CN2CCN(Cc3ccccc3)CC2)cc1 | 89 to 91 °C
48 | N#Cc1ccccc1CS(=O)(=O)Cl | 85 to 87 °C

Row | SMILES | melting point
49 | CC(=O)N1c2ccc(S(=O)(=O)Cl)cc2CC1C (stereo not drawn) | 112 to 114 °C
50 | CCNC1=NCC(c2ccccc2)S1 (stereo not drawn) | 99 to 101 °C
51 | COc1ccc2c(O)ccnc2c1 | 213 to 215 °C
52 | Cc1nc(C)c(C(=O)O)o1 | 219 to 221 °C
53 | CC(C)(Oc1cccc(Cl)c1)C(=O)O | 59 to 61 °C
54 | COc1ccc(NS(=O)(=O)c2cc(N)ccc2N2CCOCC2)cc1 | 232 to 234 °C
55 | CSc1nc(C(=O)O)c2ccccn12 | 202 to 204 °C
56 | c1csc(-c2ncc[nH]2)c1 | 191 to 193 °C
57 | O=C(NCc1ccccc1)c1ccc(-n2ccnc2S)cc1 | 216 to 218 °C
58 | Nc1ccc(-c2c3c(=O)[nH][nH]c(=O)c3c3n2CCC3)cc1 | 309 to 311 °C
59 | NC(=O)CNCc1ccccc1 | 90 to 92 °C
60 | O=C(O)c1nc(Cl)cnc1Br | 99 to 101 °C
61 | O=C(O)CCCCCc1ccc(O)cc1 | 104 to 106 °C
62 | Cc1ccc(NC(=O)C(=O)NN)cc1C | 182 to 184 °C
63 | Nc1cc(Br)cnc1Br | 137 to 139 °C
64 | CCc1nnnn1-c1ccccc1N | 107 to 109 °C
65 | O=S(=O)(c1ccc(S)cc1)C(F)(F)F | 116 to 118 °C
66 | COc1ccc(-c2nc(C(=O)O)cs2)cc1OC | 204 to 206 °C
67 | Cc1nc(CC(N)=NO)cs1 | 139 to 141 °C
68 | c1ccc(CC2CCN(Cc3ccccc3)CC2)cc1 | 65 to 67 °C
69 | Cc1cccc(-n2c(C)cc(C(=O)O)c2C)c1 | 194 to 196 °C
70 | CC(=O)NCc1ccc(C(=O)CCl)s1 | 143 to 145 °C
71 | O=C(O)CC1=NN(c2ccc(Cl)nn2)C(=O)C1 | 183 to 185 °C
72 | CC(C)(C)OC(=O)Nc1ccc(C(=O)O)cc1O | 179 to 181 °C

Row | SMILES | melting point
73 | CN(C)S(=O)(=O)c1ccc(C(=O)O)cc1Br | 185 to 187 °C
74 | COc1ccccc1-c1nnc(N)[nH]1 | 214 to 216 °C
75 | COc1ccc(-n2c(S)nc3sc4c(c3c2=O)CCCC4)cc1 | 312 to 314 °C
76 | Cc1nc(C(=O)O)nn1-c1ccccc1Cl | 189 to 191 °C
77 | CNc1nc(C)cs1 | 69 to 71 °C
78 | O=C(O)CCNC(=O)c1cnccn1 | 55 to 57 °C
79 | Cc1ccc(-c2nc(N)sc2CC(=O)O)cc1 | 218 to 222 °C
80 | N#Cc1cc(Cl)ccc1S(=O)(=O)Cl | 97 to 99 °C
81 | Cc1oncc1C(=O)Nc1ccc(N)c(C(F)(F)F)c1 | 196 to 198 °C
82 | Nc1nc(-c2cccc(F)c2)cs1 | 113 to 115 °C
83 | CN(c1ccccc1)c1ccc(C=O)cc1[N+](=O)[O-] | 95 to 97 °C
84 | O=C(O)C1CCCN(C(=O)C2Cc3cc(Cl)ccc3O2)C1 (stereo not drawn) | 159 to 161 °C
85 | O=C(CC1(C(=O)O)CCCCC1)NC1CC1 | 151 to 153 °C
86 | Cc1cnn(-c2ccc(S(=O)(=O)Cl)cc2F)c1 | 99 to 101 °C
87 | COc1ccc(CCC(=O)CC#N)cc1 | 58 to 60 °C
88 | O=C1C(Br)CCN1c1ccc(C(F)(F)F)cc1 (stereo not drawn) | 63 to 65 °C
89 | CCCC(C(=O)O)c1ccccc1 (stereo not drawn) | 63 to 67 °C
90 | COC(=O)c1cc(OC)c(OC(F)F)cc1[N+](=O)[O-] | 96 to 98 °C
91 | Nc1ccc(S(=O)(=O)Nc2ccc(Cl)cc2Cl)cc1 | 162 to 164 °C
92 | Cc1cc(=O)oc2cc(OCC(=O)O)ccc12 | 206 to 208 °C
93 | Clc1nccn2nnnc12 | 99 to 101 °C
94 | c1cnc(N2CCNCC2)cn1 | 48 to 50 °C
95 | N#CCc1c[nH]c2ncccc12 | 139 to 141 °C
96 | NC(=O)c1ccc(-c2csc(N)n2)cc1 | 250 to 252 °C

Row | SMILES | melting point
97 | CN(C)C(=O)c1ccc(F)nc1 | 44 to 46 °C
98 | Nc1ccccc1N1C(=O)c2ccc(Br)cc2C1=O | 219 to 221 °C
99 | Clc1nc(Cl)c2cn[nH]c2n1 | 127 to 129 °C
100 | COc1cccc(CNC(=O)CCl)c1 | 100 to 104 °C
101 | Cc1ccccc1-n1nc(C(C)(C)C)cc1N | 112 to 114 °C
102 | O=C(CCl)Nc1ccc(Oc2ccc(Br)cc2)nc1 | 114 to 116 °C
103 | Cc1ccc(F)c2c1NC(=O)C2=O | 227 to 229 °C
104 | O=C(O)c1csc(-c2ccccc2)n1 | 160 to 161 °C
105 | CC(C)c1cccc(C(C)C)c1NCCO | 72 to 74 °C
106 | COc1cc(F)c(C(=O)O)cc1OC | 192 to 194 °C
107 | COC1(OC)CC(CO)(CO)C1 | 48 to 50 °C
108 | CC(C)(C)OC(=O)N1CCCc2cccc(O)c21 | 60 to 62 °C
109 | COc1ccc(N)cc1OCC(F)(F)F | 154 to 156 °C
110 | CCc1nsc(S)n1 | 144 to 146 °C
111 | O=Cc1cnn(-c2ccc(F)cc2)c1 | 120 to 122 °C
112 | Nc1ccc(-c2cc[nH]n2)cc1 | 99 to 101 °C
113 | CCOC(=O)Cc1nc2ccccc2[nH]1 | 179 to 181 °C
114 | Nc1cccc(S(=O)(=O)Nc2ccccc2F)c1 | 195 to 197 °C
115 | CCc1nc(COc2ccc(C(=O)OC)cc2)no1 | 44 to 46 °C
116 | CC(C)(C)c1cc(N)n(C2CCS(=O)(=O)C2)n1 (stereo not drawn) | 247 to 249 °C
117 | Cn1ccnc1CC#N | 39 to 41 °C
118 | Clc1nc(-c2cccnc2)nc2sc3c(c12)CCCC3 | 137 to 139 °C
119 | COc1cccc(OC)c1CO | 53 to 55 °C
120 | O=C(O)CCn1ccccc1=O | 146 to 148 °C

Row | SMILES | melting point
121 | O=C1C(=O)N(Cc2ccccc2Cl)c2ccccc21 | 130 to 132 °C
122 | O=C(O)c1cn(-c2ccccc2)nc1-c1cccc2ccccc12 | 186 to 188 °C
123 | Cc1ccc(Cl)cc1C(N)=O | 150 to 152 °C
124 | O=C(O)CCC(NC(=O)Cc1ccc2ccccc2c1)C(=O)O (stereo not drawn) | 173 to 175 °C
125 | Clc1cc(SCc2ccccc2)ccn1 | 61 to 63 °C
126 | Cc1n[nH]c(C(=O)O)c1O | 184 to 186 °C
127 | O=C(O)c1cccn2ccnc12 | 266 to 268 °C
128 | O=C(O)c1c(O)cnc2ccccc12 | 199 to 201 °C
129 | O=C(O)CCc1ccc([N+](=O)[O-])cc1[N+](=O)[O-] | 124 to 126 °C
130 | O=C(O)CCNc1ncc(C(F)(F)F)cc1Cl | 131 to 133 °C
131 | Clc1ncnc2c(Br)cccc12 | 159 to 161 °C
132 | Cc1ccc(-c2n[nH]c(=O)c3ccccc23)cc1C | 252 to 254 °C
133 | COC(=O)CS(N)(=O)=O | 57 to 59 °C
134 | CCOC(=O)c1oc2ccccc2c1CBr | 77 to 79 °C
135 | COc1cccnc1N | 76 to 78 °C
136 | Cc1c(Br)cc(S(=O)(=O)Cl)cc1[N+](=O)[O-] | 122 to 124 °C
137 | CCOP(=O)(Cc1cc(Cl)ccc1Cl)OCC | 53 to 55 °C
138 | O=C1Nc2cc(F)cc(F)c2C1=O | 229 to 231 °C
139 | CCC1(C)CCNC(=O)CC1 (stereo not drawn) | 76 to 78 °C
140 | COc1cc(Cl)ccc1C(=O)NN | 178 to 180 °C
141 | CC(C)OCc1cc(C(=O)O)ccc1F | 84 to 86 °C
142 | COC(=O)c1cc(NC(=O)C(C)Cl)cc(C(=O)OC)c1 (stereo not drawn) | 126 to 128 °C
143 | O=C(O)c1cc(Br)cc2ccccc12 | 229 to 231 °C
